Laboratory results published in USRE46698E1, “Use of cyclohexanol derivatives as antimicrobial active compounds” (MERCK PATENT GMBH, priority 2011, dated 2018).

Key:
[1] = Rancimate assay, antioxidative capacity (Example 1); conditions: 0.1% w/w in soya oil; 120° C.; input of air 201/h
Method: The antioxidative capacity of substances I-9, I-10 and I-2 is determined in the so-called Rancimate assay. The comparative substances used are 4-t-butyl-1-cyclohexanol and tocopherol. The positive standard employed is BHT. The measurement parameter is the time duration (induction time) of the increase in the conductivity of unstabilised soya oil on exposure to air at elevated temperature. The longer the induction time, the greater the stabilising or antioxidant action. The following boundary conditions were maintained: input of air 201/h; temperature 120° C. and sample concentrations of 0.1% w/w each in soya oil. For each test substance, a relative antioxidation-protection factor is determined, which corresponds to the ratio of the induction times with and without test substance: […]

Echerichia coli = test: Antimicrobial action, microbe count (Example 6); assay type: cell-based; conditions: H2O (12% of ethanol), count t0 6.3 × 10^4; for Δlog: t24 h
Method: (§1) For sample preparation, the substances being investigated are each dissolved or homogeneously dispersed in an amount of 1.0% in a water/ethanol mixture (12% of ethanol) and subsequently diluted with bacteria suspension in the ratio 1 to 2. P. acnes (ATCC 6919) is pre-incubated under anaerobic conditions for 48 h at 35° C. on RMC agar (Merck 1.05410). A bacteria suspension having an optical density (OD) of about 1.5 is subsequently prepared in RMC broth (Merck 1.05411, double-concentrated). 150 μl of freshly prepared sample and 100 μl of paraffin are added to 150 μl of bacteria suspension per well. The optical density is determined over the course of time at 37° C. using a Bioscreen C™ analyser compared with the negative control (=vehicle without test substance). Compared with the negative control, reduced optical densities confirm growth-inhibiting substance actions.
(§2) For sample preparation, the substances being investigated are each dissolved or homogeneously dispersed in an amount of 1.0% in a water/ethanol mixture (12% of ethanol) (=sample). A bacteria suspension of S. epidermidis (ATCC 12228) having an optical density of 1.0 in CASO broth (Merck 1.05459) is diluted 1:10000 with CASO broth. 500 μl of sample are added to 500 μl of bacteria suspension, and the mixture is incubated at 35° C. for 24 h. After the incubation, the test batches are diluted to −6 in 10 unit steps, and 0.1 ml of each is plated-out on CASO agar (Merck 1.05458) and incubated at 35° C. for 24 h.
(§3) In order to determine the initial microbe count, 0.1 ml of the bacteria suspension used are plated-out on CASO agar (Merck 1.05458) and incubated at 35° C. for 24 h.
(§4) The colonies are subsequently counted, and the microbe count per ml is determined compared with the negative control (12% of ethanol in water).
(§5) The procedure corresponds to that described in Examples 4 and 5 using the microorganisms shown below. The concentrations indicated are the final use concentrations. In order to prepare the stock solution, double the final concentration were prepared in the solvent indicated. This was subsequently diluted 1:2 with the corresponding microbe suspension. In the case of Aspergillus brasiliensis, the microbe count determination was exceptionally carried out after 48 h.

[2] = system: S. epidermidis (ATCC 12228); test: Growth inhibition by optical density, Bioscreen C (Example 3); assay type: cell-based, Staphylococcus epidermidis; conditions: 1.0% sample in water/ethanol (12% of ethanol) diluted 1 to 2 with bacteria suspension, 37° C.
Method: For sample preparation, the substances being investigated are each dissolved or homogeneously dispersed in an amount of 1.0% in a water/ethanol mixture (12% of ethanol) and subsequently diluted with bacteria suspension in the ratio 1 to 2. S. epidermidis (ATCC 12228) is pre-incubated under aerobic conditions for 24 h at 35° C. on CASO agar (Merck 1.05458). A bacteria suspension having an optical density (OD) of about 1.0 is subsequently prepared in CASO broth (Merck 1.05459, double-concentrated) and diluted again 1:10 in CASO broth. 150 μl of freshly prepared sample are added to 150 μl of bacteria suspension per well. The optical density is determined over the course of time at 37° C. using a Bioscreen C™ analyser compared with the negative control (=vehicle without test substance). Compared with the negative control, reduced optical densities confirm growth-inhibiting substance actions
(§6) Result as optical density of the bacteria suspension after an exposure time of 20 hours: […]

P. acnes (ATCC 6919) = test: Growth inhibition by optical density, Bioscreen C (Example 4); assay type: cell-based, Propionibacterium acnes; conditions: 1.0% sample in water/ethanol (12% of ethanol) diluted 1 to 2 with bacteria suspension; 37° C.; negative control 1.0
Method: as §1, §6

[3] = system: S. epidermidis (ATCC 12228); test: Microbe count determination, bacteriostatic or bactericidal action (Example 5); assay type: cell-based, Staphylococcus epidermidis; conditions: 24 h at 35° C.; for Final microbe count: 1.0% sample in 12% ethanol, 500 μl + 500 μl bacteria suspension, initial count 3.8 × 10^4, negative control 5.0 × 10^7; for Note: bacteriostatic or bactericidal action: S. epidermidis
Method: as §2, §3, §4

Candida albicans = test: Antimicrobial action, microbe count (Example 6); assay type: cell-based; conditions: for Δlog: t24 h
Method: as §2, §3, §4, §5

Aspergillus brasiliensis = test: Antimicrobial action, microbe count (Example 6); assay type: cell-based; conditions: conc. 1.0%, H2O (12% of ethanol), count t0 8.0 × 10^2
Method: as §1, §2, §3, §4, §5

Corynebacterium xerosis = test: Antimicrobial action, microbe count (Example 6); assay type: cell-based; conditions: conc. 0.5%, H2O, count t0 1.0 × 10^6
Method: as §1, §2, §3, §4, §5

Malassezia furfur = test: Antimicrobial action, microbe count (Example 6); assay type: cell-based; conditions: conc. 1.0%, H2O, count t0 4.0 × 10^2
Method: as §1, §2, §3, §4, §5

Propionibacterium acnes = test: Antimicrobial action, microbe count (Example 6); assay type: cell-based; conditions: conc. 1.0%, H2O, count t0 7.8 × 10^5
Method: as §1, §2, §3, §4, §5

Salmonella enterica = test: Antimicrobial action, microbe count (Example 6); assay type: cell-based; conditions: conc. 0.8%, H2O (12% of ethanol), count t0 1.3 × 10^4
Method: as §1, §2, §3, §4, §5

Staphylococcus aureus = test: Antimicrobial action, microbe count (Example 6); assay type: cell-based; conditions: conc. 0.5%, H2O (12% of ethanol), count t0 1.1 × 10^4
Method: as §1, §2, §3, §4, §5

[4] = conc. 0.5%, H2O, count t0 3.8 × 10^5
[5] = conc. 1.0%, H2O (12% of ethanol), count t0 6.0 × 10^3

CC(C)(C)C1CCC(O)CC1 (stereo not shown) [4-t-butyl-1-cyclohexanol, reference compound]
Antioxidation-protection factor (ratio of the induction times with and without test substance) [1]: 1.05

COC(=O)c1ccc(O)cc1 [Methylparaben, methylparaben, reference compound]
Microbe count t24 h (Echerichia coli; conc. 0.2%): 4.8 × 10^3 | Δlog (Echerichia coli; conc. 0.2%): −1.12

CC1CC(OC(=O)C2CCCCC2O)CC(C)(C)C1 (stereo not shown) [Substance I-10, 2-hydroxycyclohexanecarboxylic acid 3,3,5-trimethylcyclohexyl ester]
Antioxidation-protection factor (ratio of the induction times with and without test substance) [1]: 1.14 | OD20h, optical density of the bacteria suspension after 20 hours ([2]; 1st experiment, negative control 0.80): 0.30 | OD20h, optical density of the bacteria suspension after 20 hours (P. acnes (ATCC 6919)): 0.45 | Final microbe count [3]: 2.0 × 10^3 CFU/ml | Note: bacteriostatic or bactericidal action [3]: bacteriostatic

CCCCOC(=O)C1CCC(O)CC1 (stereo not shown) [Substance I-20, 4-hydroxycyclohexanecarboxylic acid butyl ester]
OD20h, optical density of the bacteria suspension after 20 hours ([2]; 2nd experiment, negative control 0.65): 0.20 | OD20h, optical density of the bacteria suspension after 20 hours (P. acnes (ATCC 6919)): 0.70 | Final microbe count [3]: 0 CFU/ml | Note: bacteriostatic or bactericidal action [3]: bactericidal | Microbe count t24 h (Candida albicans; [4]): 0 | Δlog (Candida albicans; [4]): −5.58 | Microbe count t24 h (Candida albicans; [5]): 0 | Δlog (Candida albicans; [5]): −3.78 | Δlog (Aspergillus brasiliensis; count after 48 h): −0.60 | Microbe count t24 h (Aspergillus brasiliensis; count carried out after 48 h): 2.0 × 10^2 | Microbe count t24 h (Corynebacterium xerosis): 0 | Δlog (Corynebacterium xerosis; t24 h): −6.00 | Microbe count t24 h (Echerichia coli; conc. 0.8%): 0 | Δlog (Echerichia coli; conc. 0.8%): −4.80 | Microbe count t24 h (Malassezia furfur): 0 | Δlog (Malassezia furfur; t24 h): −2.60 | Microbe count t24 h (Propionibacterium acnes): 1.3 × 10^4 | Δlog (Propionibacterium acnes; t24 h): −1.78 | Microbe count t24 h (Salmonella enterica): 0 | Δlog (Salmonella enterica; t24 h): −4.11 | Microbe count t24 h (Staphylococcus aureus): 0 | Δlog (Staphylococcus aureus; t24 h): −4.04

tocopherol [reference compound]
Antioxidation-protection factor (ratio of the induction times with and without test substance) [1]: 1.00
